Like-named read-outs stand apart in the source and are kept apart here.
Experiments:
[1] = test system: NCI-H23 (NSC lung cancer); assay: NCI-60 screen (SRB, 48 h); conditions: Homo sapiens
M14 (Melanoma) = assay: NCI-60 screen (SRB, 48 h); conditions: Homo sapiens
SF-539 (CNS cancer) = assay: NCI-60 screen (SRB, 48 h); conditions: Homo sapiens
HS 578T (Breast cancer) = assay: NCI-60 screen (SRB, 48 h); conditions: Homo sapiens
MALME-3M (Melanoma) = assay: NCI-60 screen (SRB, 48 h); conditions: Homo sapiens
SN12C (Renal cancer) = assay: NCI-60 screen (SRB, 48 h); conditions: Homo sapiens
SK-MEL-2 (Melanoma) = assay: NCI-60 screen (SRB, 48 h); conditions: Homo sapiens
HCT-15 (Colon cancer) = assay: NCI-60 screen (SRB, 48 h); conditions: Homo sapiens
OVCAR-4 (Ovarian cancer) = assay: NCI-60 screen (SRB, 48 h); format: cell-based; conditions: Homo sapiens
[2] = test system: NCI/ADR-RES (Ovarian cancer); assay: NCI-60 screen (SRB, 48 h); conditions: Homo sapiens
HOP-92 (NSC lung cancer) = assay: NCI-60 screen (SRB, 48 h); conditions: Homo sapiens
MDA-MB-435 (Melanoma) = assay: NCI-60 screen (SRB, 48 h); format: cell-based; conditions: Homo sapiens
RPMI-8226 (Leukemia) = assay: NCI-60 screen (SRB, 48 h); conditions: Homo sapiens
UACC-257 (Melanoma) = assay: NCI-60 screen (SRB, 48 h); conditions: Homo sapiens
LOX IMVI (Melanoma) = assay: NCI-60 screen (SRB, 48 h); format: cell-based; conditions: Homo sapiens
HCC-2998 (Colon cancer) = assay: NCI-60 screen (SRB, 48 h); conditions: Homo sapiens
Leukemia subpanel = assay: cells; conditions: Homo sapiens
OVCAR-5 (Ovarian cancer) = assay: NCI-60 screen (SRB, 48 h); conditions: Homo sapiens
U251 (CNS cancer) = assay: NCI-60 screen (SRB, 48 h)
[3] = test system: panel of approximately 60 cancer cell lines; assay: NCI-60 screen (SRB, 48 h), full panel
K-562 (Leukemia) = assay: NCI-60 screen (SRB, 48 h); conditions: Homo sapiens
[4] = test system: NCI-H226 (NSC lung cancer); assay: NCI-60 screen (SRB, 48 h); conditions: Homo sapiens
CNS cancer subpanel = assay: NCI-60 screen, subpanel; conditions: Homo sapiens
SK-OV-3 (Ovarian cancer) = assay: NCI-60 screen (SRB, 48 h); conditions: Homo sapiens
SK-MEL-28 (Melanoma) = assay: NCI-60 screen (SRB, 48 h); conditions: Homo sapiens
[5] = test system: MDA-MB-31/ATCC (Breast cancer); assay: NCI-60 screen (SRB, 48 h); conditions: Homo sapiens
OVCAR-8 (Ovarian cancer) = assay: NCI-60 screen (SRB, 48 h)

Which GI50 ([1]; NCI-H23) does the source give for CC(C)=C1CCC=C2CC[C@]3(C)[C@H](CC[C@@H]4[C@@]5(C)CCCNC(C)(C)[C@@H]5CC[C@]43C)[C@H]21 [Compound 9] here?
Its GI50 is 1.78 µM.

And the IC (TGI) ([1]; NCI-H23, 48 h, read-out: TGI)?
The IC (TGI) was 3.37 µM.

What about the CC50 ([1]; NCI-H23, read-out: LC50) of the same compound?
Its CC50 is 6.39 µM.

What about the GI50 (M14 (Melanoma); M14) of the same compound?
The GI50 was 1.73 µM.

What about the IC (TGI) (M14 (Melanoma); M14, 48 h, read-out: TGI) of the same compound?
The IC (TGI) was 3.26 µM.

And the CC50 (M14 (Melanoma); M14, read-out: LC50)?
The CC50 was 6.12 µM.

What about the GI50 (SF-539 (CNS cancer); SF-539) of the same compound?
The GI50 was 1.69 µM.

What about the IC (TGI) (SF-539 (CNS cancer); SF-539, 48 h, read-out: TGI) of the same compound?
Its IC (TGI) is 3.13 µM.

What about the CC50 (SF-539 (CNS cancer); SF-539, read-out: LC50) of the same compound?
Its CC50 is 5.8 µM.

And the GI50 (HS 578T (Breast cancer))?
Its GI50 is 1.79 µM.

What about the IC (TGI) (HS 578T (Breast cancer); 48 h, read-out: TGI) of the same compound?
Its IC (TGI) is 4.04 µM.

And the CC50 (HS 578T (Breast cancer); read-out: LC50)?
Its CC50 is 9.11 µM.

And the GI50 (MALME-3M (Melanoma))?
Its GI50 is 1.77 µM.

And the IC (TGI) (MALME-3M (Melanoma); 48 h, read-out: TGI)?
Its IC (TGI) is 3.48 µM.

What about the CC50 (MALME-3M (Melanoma); read-out: LC50) of the same compound?
Its CC50 is 6.84 µM.

And the GI50 (SN12C (Renal cancer))?
Its GI50 is 1.83 µM.

And the IC (TGI) (SN12C (Renal cancer); 48 h, read-out: TGI)?
The IC (TGI) was 3.44 µM.

What about the CC50 (SN12C (Renal cancer); read-out: LC50) of the same compound?
Its CC50 is 6.45 µM.

And the GI50 (SK-MEL-2 (Melanoma); SK-MEL-2)?
Its GI50 is 1.81 µM.

What about the IC (TGI) (SK-MEL-2 (Melanoma); SK-MEL-2, 48 h, read-out: TGI) of the same compound?
Its IC (TGI) is 3.48 µM.

What about the CC50 (SK-MEL-2 (Melanoma); SK-MEL-2, read-out: LC50) of the same compound?
Its CC50 is 6.69 µM.

And the GI50 (HCT-15 (Colon cancer); HCT-15)?
The GI50 was 1.4 µM.

And the IC (TGI) (HCT-15 (Colon cancer); HCT-15, 48 h, read-out: TGI)?
Its IC (TGI) is 2.81 µM.

And the IC (TGI) (OVCAR-4 (Ovarian cancer); OVCAR-4, 48 h)?
The IC (TGI) was 3.6 µM.

And the GI50 (OVCAR-4 (Ovarian cancer); OVCAR-4, read-out: GI50)?
The GI50 was 1.99 µM.

And the GI50 [2]?
Its GI50 is 1.84 µM.

What about the IC (TGI) ([2]; 48 h, read-out: TGI) of the same compound?
Its IC (TGI) is 3.52 µM.

What about the CC50 ([2]; read-out: LC50) of the same compound?
The CC50 was 6.73 µM.

And the GI50 (HOP-92 (NSC lung cancer); HOP-92)?
Its GI50 is 1.39 µM.

And the IC (TGI) (HOP-92 (NSC lung cancer); HOP-92, 48 h, read-out: TGI)?
The IC (TGI) was 2.77 µM.

What about the CC50 (HOP-92 (NSC lung cancer); HOP-92, read-out: LC50) of the same compound?
The CC50 was 5.52 µM.

And the GI50 (MDA-MB-435 (Melanoma); MDA-MB-435)?
Its GI50 is 1.85 µM.

And the IC (TGI) (MDA-MB-435 (Melanoma); MDA-MB-435, 48 h, read-out: TGI)?
The IC (TGI) was 3.28 µM.

And the CC50 (MDA-MB-435 (Melanoma); MDA-MB-435, read-out: LC50 (the source's name))?
The CC50 was 5.81 µM.

And the GI50 (RPMI-8226 (Leukemia); RPMI-8226)?
Its GI50 is 2.06 µM.

What about the IC (TGI) (RPMI-8226 (Leukemia); RPMI-8226, 48 h, read-out: TGI) of the same compound?
The IC (TGI) was 4.1 µM.

And the GI50 (UACC-257 (Melanoma); UACC-257)?
Its GI50 is 1.86 µM.

What about the IC (TGI) (UACC-257 (Melanoma); UACC-257, 48 h, read-out: TGI) of the same compound?
The IC (TGI) was 3.63 µM.

What about the CC50 (UACC-257 (Melanoma); UACC-257, read-out: LC50) of the same compound?
The CC50 was 7.09 µM.

And the IC (TGI) (LOX IMVI (Melanoma); 48 h)?
Its IC (TGI) is 3.01 µM.

What about the activity at 10 µM (LOX IMVI (Melanoma); 48 h, 1 dose 10 µM, read-out: Growth % of the Most Sensitive Cell Lines) of the same compound?
The activity at 10 µM was -100%.

And the GI50 (LOX IMVI (Melanoma); read-out: GI50)?
Its GI50 is 1.65 µM.

And the CC50 (LOX IMVI (Melanoma); read-out: LC50 (the source's name))?
The CC50 was 5.49 µM.

And the GI50 (HCC-2998 (Colon cancer); HCC 2998)?
The GI50 was 1.74 µM.

What about the IC (TGI) (HCC-2998 (Colon cancer); HCC 2998, 48 h, read-out: TGI) of the same compound?
The IC (TGI) was 3.19 µM.

And the IC (TGI) (Leukemia subpanel; 48 h, read-out: TGI MG_MID)?
The IC (TGI) was 3.59 µM.

What about the GI50 (Leukemia subpanel; read-out: GI50 MG_MID) of the same compound?
The GI50 was 1.55 µM.

What about the CC50 (Leukemia subpanel; read-out: LC50 MG_MID) of the same compound?
Its CC50 is 7.19 µM.

What about the GI50 (OVCAR-5 (Ovarian cancer); OVCAR-5) of the same compound?
Its GI50 is 1.67 µM.

And the IC (TGI) (OVCAR-5 (Ovarian cancer); OVCAR-5, 48 h, read-out: TGI)?
Its IC (TGI) is 3.07 µM.

What about the CC50 (OVCAR-5 (Ovarian cancer); OVCAR-5, read-out: LC50) of the same compound?
The CC50 was 5.65 µM.

And the GI50 (U251 (CNS cancer); Homo sapiens, U-251)?
Its GI50 is 1.69 µM.

What about the IC (TGI) (U251 (CNS cancer); Homo sapiens, U-251, 48 h, read-out: TGI) of the same compound?
The IC (TGI) was 3.17 µM.

What about the “Growth % of the Most Sensitive Cell Lines” value (U251 (CNS cancer); U251, 1 dose 10 µM) of the same compound?
The value was −90.81%.

What about the “Positive Cytostatic Effect (cell lines with percent growth 0 to 50 / total)” value ([3]; 1 dose 10 µM) of the same compound?
Its value is 15/58.

What about the “Positive Cytotoxic Effect (cell lines with percent growth < 0 / total)” value ([3]; 1 dose 10 µM) of the same compound?
Its value is 24/58.

What about the “number of cancer cell lines the compound was active against” value ([3]; 1 dose 10 µM) of the same compound?
The value was 36 cell lines.

What about the activity at 10 µM ([3]; Homo sapiens, 48 h, read-out: Mean Growth, %) of the same compound?
Its activity at 10 µM is 13.6%.

And the activity at 10 µM ([3]; Homo sapiens, 48 h, read-out: Range of Growth, %)?
Its activity at 10 µM is -100 to 107%.

What about the IC (TGI) ([3]; Homo sapiens, 48 h, read-out: TGI MG_MID60, average over all cell lines) of the same compound?
Its IC (TGI) is 3.35 µM.

And the GI50 ([3]; Homo sapiens, read-out: GI50 MG_MID60)?
Its GI50 is 1.75 µM.

What about the GI50 ([3]; Homo sapiens, read-out: GI50 against all human tumor cell lines) of the same compound?
Its GI50 is less than 3 µM.

What about the GI50 ([3]; Homo sapiens, read-out: GI50 against the most sensitive cell lines) of the same compound?
Its GI50 is 0.2 to 0.94 µM.

What about the CC50 ([3]; Homo sapiens, read-out: LC50 MG_MID60, average over all cell lines) of the same compound?
The CC50 was 6.43 µM.

What about the GI50 (K-562 (Leukemia); K562) of the same compound?
The GI50 was 1.25 µM.

And the IC (TGI) (K-562 (Leukemia); K562, 48 h, read-out: TGI)?
Its IC (TGI) is 3.5 µM.

And the GI50 ([4]; NCI-H226)?
Its GI50 is 1.79 µM.

And the IC (TGI) ([4]; NCI-H226, 48 h, read-out: TGI)?
The IC (TGI) was 3.54 µM.

And the IC (TGI) (CNS cancer subpanel; 48 h, read-out: TGI MG_MID)?
The IC (TGI) was 3.44 µM.

What about the GI50 (CNS cancer subpanel; read-out: GI50 MG_MID) of the same compound?
Its GI50 is 1.83 µM.

And the CC50 (CNS cancer subpanel; read-out: LC50 MG_MID)?
Its CC50 is 6.61 µM.

What about the GI50 (SK-OV-3 (Ovarian cancer); SK-OV-3) of the same compound?
Its GI50 is 1.89 µM.

What about the IC (TGI) (SK-OV-3 (Ovarian cancer); SK-OV-3, 48 h, read-out: TGI) of the same compound?
The IC (TGI) was 3.5 µM.

And the CC50 (SK-OV-3 (Ovarian cancer); SK-OV-3, read-out: LC50)?
Its CC50 is 6.46 µM.

What about the GI50 (SK-MEL-28 (Melanoma); SK-MEL-28) of the same compound?
Its GI50 is 1.81 µM.

And the IC (TGI) (SK-MEL-28 (Melanoma); SK-MEL-28, 48 h, read-out: TGI)?
Its IC (TGI) is 3.32 µM.

And the CC50 (SK-MEL-28 (Melanoma); SK-MEL-28, read-out: LC50)?
Its CC50 is 6.11 µM.

And the GI50 [5]?
Its GI50 is 1.8 µM.

What about the IC (TGI) ([5]; 48 h, read-out: TGI) of the same compound?
Its IC (TGI) is 3.47 µM.

What about the CC50 ([5]; read-out: LC50) of the same compound?
Its CC50 is 6.69 µM.

And the GI50 (OVCAR-8 (Ovarian cancer); Homo sapiens, OVCAR-8)?
Its GI50 is 2.01 µM.

What about the IC (TGI) (OVCAR-8 (Ovarian cancer); Homo sapiens, OVCAR-8, 48 h, read-out: TGI) of the same compound?
The IC (TGI) was 4.25 µM.

And the “Growth % of the Most Sensitive Cell Lines” value (OVCAR-8 (Ovarian cancer); OVCAR-8, 1 dose 10 µM)?
The value was −87.34%.

Reference: PMC7914897, “Cytotoxic Potential of a-Azepano- and 3-Amino-3,4-SeCo-Triterpenoids” (International Journal of Molecular Sciences, 2021)
